ChEMBL document CHEMBL5236594, “Novel α7 nicotinic acetylcholine receptor modulators as potential antitussive agents” (Bioorg Med Chem Lett, 2023)
The source made the active and inactive calls. No cut-off for these calls is given here.

What was measured:
[1] = target: Neuronal acetylcholine receptor; alpha4/beta2 (Homo sapiens, UniProt P17787+P43681); assay: Binding affinity to alpha4beta2 nAChR (unknown origin) assessed as dissociation constant; format: protein-complex assay
[2] = target: Neuronal acetylcholine receptor subunit alpha-7 (Homo sapiens, UniProt P36544); assay: Binding affinity to alpha7 nAChR (unknown origin) assessed as dissociation constant
Neuronal acetylcholine receptor subunit alpha-7, sequence (P36544 whole entry): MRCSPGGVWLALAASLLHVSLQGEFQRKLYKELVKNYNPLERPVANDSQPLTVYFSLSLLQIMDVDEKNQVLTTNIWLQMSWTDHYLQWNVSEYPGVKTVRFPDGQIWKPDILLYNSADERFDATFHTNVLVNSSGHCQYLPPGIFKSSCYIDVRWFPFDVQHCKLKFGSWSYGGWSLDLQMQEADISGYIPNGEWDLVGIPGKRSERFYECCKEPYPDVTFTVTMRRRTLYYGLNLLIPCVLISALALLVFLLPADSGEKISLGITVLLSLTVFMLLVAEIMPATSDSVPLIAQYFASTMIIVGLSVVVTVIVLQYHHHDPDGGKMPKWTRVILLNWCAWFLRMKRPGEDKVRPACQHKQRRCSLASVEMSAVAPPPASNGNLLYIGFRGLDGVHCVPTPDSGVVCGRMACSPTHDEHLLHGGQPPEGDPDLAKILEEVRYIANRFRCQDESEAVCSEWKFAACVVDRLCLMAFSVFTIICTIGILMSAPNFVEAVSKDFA

[3] = target: Neuronal acetylcholine receptor; alpha3/beta4 (Homo sapiens, UniProt P30926+P32297); assay: Binding affinity to alpha3beta4 nAChR (unknown origin) assessed as dissociation constant; format: protein-complex assay
Neuronal acetylcholine receptor; alpha3/beta4, sequence (P30926 whole entry): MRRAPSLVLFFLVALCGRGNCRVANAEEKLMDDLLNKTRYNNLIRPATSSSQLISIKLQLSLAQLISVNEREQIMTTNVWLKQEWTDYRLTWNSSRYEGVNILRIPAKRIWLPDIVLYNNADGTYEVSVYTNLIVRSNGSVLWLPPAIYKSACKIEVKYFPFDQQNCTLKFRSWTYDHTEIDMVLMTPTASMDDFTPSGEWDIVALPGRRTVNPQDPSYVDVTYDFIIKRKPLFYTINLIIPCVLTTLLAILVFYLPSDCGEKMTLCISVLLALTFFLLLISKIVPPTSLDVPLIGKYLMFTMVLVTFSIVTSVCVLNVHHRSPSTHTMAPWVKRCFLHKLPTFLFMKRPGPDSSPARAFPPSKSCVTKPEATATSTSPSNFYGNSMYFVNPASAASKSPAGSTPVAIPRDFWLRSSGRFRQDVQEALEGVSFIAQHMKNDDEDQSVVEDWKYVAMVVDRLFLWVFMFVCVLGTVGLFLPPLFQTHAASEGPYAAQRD
Neuronal acetylcholine receptor; alpha3/beta4, sequence (P32297 whole entry): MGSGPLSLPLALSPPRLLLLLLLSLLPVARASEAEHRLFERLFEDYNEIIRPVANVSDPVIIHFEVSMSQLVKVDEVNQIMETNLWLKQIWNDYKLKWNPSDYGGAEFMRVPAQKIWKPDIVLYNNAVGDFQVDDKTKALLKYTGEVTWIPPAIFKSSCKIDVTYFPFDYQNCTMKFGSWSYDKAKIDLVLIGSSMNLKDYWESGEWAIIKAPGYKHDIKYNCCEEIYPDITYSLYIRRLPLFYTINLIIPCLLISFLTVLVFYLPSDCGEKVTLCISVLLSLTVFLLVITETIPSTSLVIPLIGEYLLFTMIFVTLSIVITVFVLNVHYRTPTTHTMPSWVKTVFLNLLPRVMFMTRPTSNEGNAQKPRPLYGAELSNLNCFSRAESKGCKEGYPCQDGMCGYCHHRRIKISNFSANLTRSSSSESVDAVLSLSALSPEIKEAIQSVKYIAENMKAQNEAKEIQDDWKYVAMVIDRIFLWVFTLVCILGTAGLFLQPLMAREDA

Cavia porcellus [4] = assay: Anti-tussive activity in guniea pig cough model assessed as reduction in cumulative number of coughs at 30 mg/kg, ip; format: functional, organism-based
Cavia porcellus [5] = assay: Anti-tussive activity in guniea pig cough model assessed as suppression of cough frequency at 1 to 9.5 mg/kg, ip; format: functional, organism-based; settings: dose 1-9.5 mg/kg
[6] = Half life in INSULFFLATION dosed guinea pig; format: ADME, organism-based, Cavia porcellus; settings: in vivo, inhaled or intranasal
[7] = Half life in ip dosed guinea pig; format: ADME, organism-based, Cavia porcellus; settings: in vivo
Cavia porcellus [8] = assay: Anti-tussive activity in guniea pig cough model assessed as reduction in cough inhibition period at 1 to 9.5 mg/kg, ip; format: functional, organism-based; settings: dose 1-9.5 mg/kg
Cavia porcellus [9] = assay: Anti-tussive activity in guniea pig cough model assessed as reduction in cumulative number of coughs at 1 to 9.5 mg/kg, ip; format: functional, organism-based; settings: dose 1-9.5 mg/kg
Cavia porcellus [10] = assay: Anti-tussive activity in guniea pig cough model assessed as reduction in cumulative number of coughs at 1 to 2 mg/kg, IT; format: functional, organism-based; settings: dose 1-2 mg/kg
Cavia porcellus [11] = assay: Anti-tussive activity in guniea pig cough model assessed as reduction in cumulative number of coughs at 9.5 mg/kg, po; format: functional, organism-based
[12] = Half life in po dosed guinea pig; format: ADME, organism-based, Cavia porcellus; settings: in vivo
Cavia porcellus [13] = assay: Anti-tussive activity in guniea pig cough model assessed as reduction in cough inhibition period at 0.1 to 0.4 mg/kg, INH; format: functional, organism-based; settings: dose 0.1-0.4 mg/kg
Cavia porcellus [14] = assay: Anti-tussive activity in guniea pig cough model assessed as reduction in cumulative number of coughs at 0.4 mg/kg, INH; format: functional, organism-based
Cavia porcellus [15] = assay: Anti-tussive activity in citric acid-induced guniea pig cough model assessed as reduction in cough count at 30 mg/kg, ip; format: functional, organism-based
Cavia porcellus [16] = assay: Anti-tussive activity in guniea pig cough model assessed as reduction in cumulative number of coughs at 3 to 30 mg/kg, ip; format: functional, organism-based; settings: dose 3-30 mg/kg
Cavia porcellus [17] = assay: Anti-tussive activity in guniea pig cough model assessed as suppression of cough frequency at 3 to 30 mg/kg, ip; format: functional, organism-based; settings: dose 3-30 mg/kg

Neuronal acetylcholine receptor; alpha4/beta2, sequence (P17787 whole entry): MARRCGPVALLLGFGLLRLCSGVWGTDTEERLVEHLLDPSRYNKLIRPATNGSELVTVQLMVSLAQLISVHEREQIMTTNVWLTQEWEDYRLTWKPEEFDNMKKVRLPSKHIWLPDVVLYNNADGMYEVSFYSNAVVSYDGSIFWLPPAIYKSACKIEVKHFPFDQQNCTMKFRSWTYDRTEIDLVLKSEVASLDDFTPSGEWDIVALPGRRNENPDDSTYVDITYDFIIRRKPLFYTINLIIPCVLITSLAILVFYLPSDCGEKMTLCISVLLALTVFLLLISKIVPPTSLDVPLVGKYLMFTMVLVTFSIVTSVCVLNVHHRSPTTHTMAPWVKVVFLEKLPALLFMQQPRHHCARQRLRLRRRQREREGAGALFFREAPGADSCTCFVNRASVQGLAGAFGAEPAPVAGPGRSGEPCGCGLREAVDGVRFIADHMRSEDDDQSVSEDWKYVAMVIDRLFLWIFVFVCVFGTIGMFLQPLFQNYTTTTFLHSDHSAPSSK
Neuronal acetylcholine receptor; alpha4/beta2, sequence (P43681 whole entry): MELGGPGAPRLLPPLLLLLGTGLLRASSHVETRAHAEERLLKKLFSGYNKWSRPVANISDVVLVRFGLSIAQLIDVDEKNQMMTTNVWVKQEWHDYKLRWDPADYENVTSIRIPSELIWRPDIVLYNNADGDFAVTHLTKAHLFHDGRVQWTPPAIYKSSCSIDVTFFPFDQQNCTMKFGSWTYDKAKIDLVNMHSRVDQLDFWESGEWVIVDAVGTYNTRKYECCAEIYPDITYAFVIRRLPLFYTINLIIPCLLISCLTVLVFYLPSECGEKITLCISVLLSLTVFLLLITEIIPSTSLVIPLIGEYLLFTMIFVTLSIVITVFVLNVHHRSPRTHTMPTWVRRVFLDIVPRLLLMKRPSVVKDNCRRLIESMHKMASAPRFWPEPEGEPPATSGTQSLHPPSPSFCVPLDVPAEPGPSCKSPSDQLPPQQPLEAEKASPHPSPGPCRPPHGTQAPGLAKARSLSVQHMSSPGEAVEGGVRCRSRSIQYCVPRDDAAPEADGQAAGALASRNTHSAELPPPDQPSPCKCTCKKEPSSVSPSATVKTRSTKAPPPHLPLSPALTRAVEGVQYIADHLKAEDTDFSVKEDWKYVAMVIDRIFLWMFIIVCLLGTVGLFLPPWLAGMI

SMILES | Ki [1] [nM] | Ki [2] [nM] | Ki [3] [nM] | other results
c1cncc(C[C@H]2[C@H](Oc3ccc(-c4ccc5[nH]ccc5c4)cn3)C3CCN2CC3)c1 | 470 | 58 | 780 | –
COc1ccc2c3c1O[C@H]1[C@@H](O)C=C[C@H]4[C@@H](C2)N(C)CC[C@@]341 | – | – | – | Activity (Cavia porcellus [4]): Active
c1cncc(C[C@@H]2[C@@H](Oc3nnc(-c4ccc5[nH]ccc5c4)s3)C3CCN2CC3)c1 (relative stereo) | 220 | – | 440 | Activity (Cavia porcellus [5]): Active; half-life [6]: 192 min; half-life [7]: 102 min; Activity (Cavia porcellus [8]): Active; Activity (Cavia porcellus [9]): Active; Activity (Cavia porcellus [10]): Active; Activity (Cavia porcellus [11]): inactive; half-life [12]: 90 min; Activity (Cavia porcellus [13]): Active; Activity (Cavia porcellus [14]): Active
c1cncc(C[C@@H]2[C@@H](Oc3ccc4ccccc4n3)C3CCN2CC3)c1 (relative stereo) | 140 | – | 800 | –
c1cncc(C[C@@H]2[C@H](Oc3ccc(-c4ccc5[nH]ccc5c4)nn3)C3CCN2CC3)c1 (relative stereo) | 17.3 | – | 200 | –
c1cncc(C[C@H]2[C@H](Oc3cnc(-c4ccc5[nH]ccc5c4)cn3)C3CCN2CC3)c1 (relative stereo) | 230 | 240 | 400 | –
c1cncc(C[C@H]2[C@H](Oc3ccc(-c4ccc5[nH]ccc5c4)nn3)C3CCN2CC3)c1 (relative stereo) | 73 | 1.4 | 730 | Activity (Cavia porcellus [15]): Active
c1ccc(-c2ccc(O[C@@H]3C4CCN(CC4)[C@H]3Cc3cccnc3)nn2)cc1 (relative stereo) | 120 | 100 | 80 | –
Nc1nc2ccc(-c3ccc(O[C@H]4C5CCN(CC5)[C@@H]4Cc4cccnc4)nn3)cc2s1 (relative stereo) | 50 | 18.8 | 1080 | –
c1cncc(C[C@@H]2[C@@H](Oc3ccc(-c4ccc[nH]4)nn3)C3CCN2CC3)c1 (relative stereo) | 200 | 42 | 730 | Activity (Cavia porcellus [16]): inactive; Activity (Cavia porcellus [17]): Active
c1cncc(C[C@@H]2[C@@H](Oc3cc4ccccc4cn3)C3CCN2CC3)c1 (relative stereo) | 1870 | 1000 | 2150 | –
c1ccc(-c2nnc(O[C@H]3C4CCN(CC4)[C@@H]3Cc3cccnc3)s2)cc1 (relative stereo) | 330 | – | 340 | –
